Experimental data taken from patent US20230094146A1, “DEUTERATED THIENOPYRIDINE COMPOUND” (MEDSHINE DISCOVERY INC., priority 2020, published 2023).
Counter-ions that a name gives are not always drawn.

Assays:
[1] = Metabolic stability of liver microsomes in vitro; format: in vitro ADME, SD rat; conditions: Rat liver microsomes 0.5 mg/mL, compound 1 μM; for CLint scaled at 1 μM: Sprague-Dawley
Method: (§1) SD rat, mouse, beagle, cynomolgus monkey and human microsomes were purchased from Corning, Xenotech or BioIVT and stored in a −80° C. freezer.
(§2) 1.2 Nicotinamide adenine dinucleotide phosphate, reduced (NADPH), supplier: Chem-impex international, catalog number: 00616.
(§3) 1.3 Control compounds: testosterone, diclofenac, propafenone.
(§4) Stock solution: 10 mM DMSO solution.
(§5) Working concentration preparation: 100% acetonitrile diluted to 100 μM (organic phase content: 99% ACN, 1% DMSO).
(§6) Prepare two 96-well incubation plates, which were named T60 incubation plate and NCF60 incubation plate, respectively.
(§7) 445 μL of microsomal working solution (liver microsomal protein concentration of 0.56 mg/mL) was added to the T60 incubation plate and NCF60 incubation plate, respectively, and then the above incubation plates were preincubated in a 37° C. water bath for about 10 minutes.
(§8) After the preincubation, 5 μL of test substance or working solution of control compound were added to the T60 incubation plate and NCF60 incubation plate, respectively, and mixed well. The reaction was initiated by adding 50 μL of potassium phosphate buffer to each well of the NCF60 incubation plate; 180 μL of termination solution (acetonitrile solution containing 200 ng/mL tolbutamide and 200 ng/mL labetalol) and 6 μL of NADPH regeneration system working solution were added to the TO termination plate, and 54 μL of sample was removed from the T60 incubation plate to the TO termination plate (TO sample generation). The reaction was initiated by adding 44 μL NADPH regeneration system working solution to each well of the T60 incubation plate. 54 μL of microsomal working solution, 6 μL of NADPH regeneration system working solution and 180 μL of termination solution were added only to the blank plate. Therefore, in the samples of the test or control compounds, the final reaction concentration of compound, testosterone, diclofenac and propafenone was 1 μM, the concentration of liver microsomes was 0.5 mg/mL, and the final concentration of DMSO and acetonitrile in the reaction system were 0.01% (v/v) and 0.99% (v/v), respectively.
(§9) After incubation for an appropriate time (e.g. 5, 10, 20, 30 and 60 minutes), 180 μL of termination solution (acetonitrile solution containing 200 ng/mL tolbutamide and 200 ng/mL labetalol) was added to the sample well of each termination plate, respectively, and then 60 μL of sample was removed from the T60 incubation plate to terminate the reaction.
(§10) All sample plates were shaken well and centrifuged at 3220×g for 20 minutes, then 80 μL of supernatant per well was diluted into 240 μL of purified water for liquid chromatography tandem mass spectrometry analysis.
(§11) All samples were injected for analysis.

[2] = Metabolic stability of liver microsomes in vitro; format: in vitro ADME, cynomolgus monkey; conditions: Monkey liver microsomes 0.5 mg/mL, compound 1 μM
Method: as §1, §2, §3, §4, §5, §6, §7, §8, §9, §10, §11

[3] = Metabolic stability of liver microsomes in vitro; format: in vitro ADME; conditions: compound 1 μM
Method: as §1, §2, §3, §4, §5, §6, §7, §8, §9, §10, §11

[4] = molecular target: T1, VEGFR1 (Homo sapiens, UniProt P17948); test: 33P isotope-labeled kinase activity assay (Reaction Biology Corp); format: biochemical; conditions: 33P-ATP at Km concentration
T1 construct: purchased Reaction Biology Corp
T1 sequence (P17948 27-1338): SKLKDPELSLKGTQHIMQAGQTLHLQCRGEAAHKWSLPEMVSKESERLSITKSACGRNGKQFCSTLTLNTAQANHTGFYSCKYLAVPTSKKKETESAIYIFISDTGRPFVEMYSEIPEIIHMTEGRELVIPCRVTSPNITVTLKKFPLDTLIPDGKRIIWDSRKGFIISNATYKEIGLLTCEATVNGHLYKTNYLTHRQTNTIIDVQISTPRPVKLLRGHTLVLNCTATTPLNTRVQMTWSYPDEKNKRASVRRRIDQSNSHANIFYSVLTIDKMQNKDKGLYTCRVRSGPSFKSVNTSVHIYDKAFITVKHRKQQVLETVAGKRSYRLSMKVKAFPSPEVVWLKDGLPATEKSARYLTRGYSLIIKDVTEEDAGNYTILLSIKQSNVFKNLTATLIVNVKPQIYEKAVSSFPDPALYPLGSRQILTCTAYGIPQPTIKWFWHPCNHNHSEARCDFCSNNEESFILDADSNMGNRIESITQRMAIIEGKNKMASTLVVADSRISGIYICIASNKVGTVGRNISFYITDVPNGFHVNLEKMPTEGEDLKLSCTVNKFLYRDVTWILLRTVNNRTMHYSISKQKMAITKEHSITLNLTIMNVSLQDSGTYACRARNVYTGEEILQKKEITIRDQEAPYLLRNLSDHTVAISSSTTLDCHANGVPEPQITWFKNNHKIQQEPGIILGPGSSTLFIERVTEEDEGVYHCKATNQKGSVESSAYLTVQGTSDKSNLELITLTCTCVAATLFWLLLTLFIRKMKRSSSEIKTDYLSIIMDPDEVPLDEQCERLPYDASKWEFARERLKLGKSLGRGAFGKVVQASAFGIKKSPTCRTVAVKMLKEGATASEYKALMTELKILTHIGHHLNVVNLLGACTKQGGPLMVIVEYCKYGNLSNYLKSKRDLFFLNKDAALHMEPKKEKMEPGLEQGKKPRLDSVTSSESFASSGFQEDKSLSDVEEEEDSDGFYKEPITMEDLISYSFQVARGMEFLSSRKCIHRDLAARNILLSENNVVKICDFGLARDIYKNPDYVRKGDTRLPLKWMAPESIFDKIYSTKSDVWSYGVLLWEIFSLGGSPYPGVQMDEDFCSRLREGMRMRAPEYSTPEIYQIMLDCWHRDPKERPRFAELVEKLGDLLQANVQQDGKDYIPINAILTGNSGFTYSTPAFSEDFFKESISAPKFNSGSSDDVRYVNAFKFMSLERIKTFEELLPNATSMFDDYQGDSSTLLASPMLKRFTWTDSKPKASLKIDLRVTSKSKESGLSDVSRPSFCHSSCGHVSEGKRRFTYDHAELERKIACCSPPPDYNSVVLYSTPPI
Method: (§12) The ^33P isotope-labeled kinase activity assay (Reaction Biology Corp) was used to determine the IC50 value to evaluate the inhibitory ability of the test compounds to Axl, c-Kit, Mer, DDR2, VEGFR1, VEGFR2, VEGFR3, TrkA, and FLT3.
(§13) Buffer conditions: 20 mM hydroxyethylpiperazine […] (Hepes) (pH 7.5), 10 mM MgCl2, 1 mM ethylene glycol bisaminoethyl ether tetraacetic acid (EGTA), 0.02% polyoxyethylene dodecane Ether (Brij35), 0.02 mg/ml BSA, 0.1 mM Na3VO4, 2 mM dithiothreitol (DTT), 1% DMSO.
(§14) Compound Treatment: Test compounds were dissolved in 100% DMSO and diluted serially to a specific concentration with DMSO by Integra Viaflo Assist.
(§15) Test procedure: The substrate was dissolved in freshly prepared buffer, the tested kinase was added and gently mixed well. The DMSO solution containing the test compound was added to the above well mixed reaction solution using acoustic technique (Echo 550) and incubated at room temperature for […]. The compound concentrations in the reaction solution were 3 μM, 1 μM, 0.333 μM, 0.111 μM, 0.0370 μM, 0.0123 μM, 4.12 nM, 1.37 nM, 0.457 nM, 0.152 nM. After 15 minutes of incubation, ^33P-ATP (activity 0.01 μCi/μL, Km concentration) was added to start the reaction. The reaction was carried out at room temperature for 120 minutes, then radioactivity was detected by filter binding method. The kinase activity data were expressed by comparison between the kinase activity containing the test compound and the kinase activity of the blank group (containing DMSO only), and the IC50 values were obtained by curve fitting using Prism4 software (GraphPad), and the experimental results are shown in Table 1.

[5] = molecular target: T2, VEGFR2 (Homo sapiens, UniProt P35968); test: as above; format: biochemical; conditions: 33P-ATP at Km concentration
T2 construct: purchased Reaction Biology Corp
T2 sequence (P35968 20-1356): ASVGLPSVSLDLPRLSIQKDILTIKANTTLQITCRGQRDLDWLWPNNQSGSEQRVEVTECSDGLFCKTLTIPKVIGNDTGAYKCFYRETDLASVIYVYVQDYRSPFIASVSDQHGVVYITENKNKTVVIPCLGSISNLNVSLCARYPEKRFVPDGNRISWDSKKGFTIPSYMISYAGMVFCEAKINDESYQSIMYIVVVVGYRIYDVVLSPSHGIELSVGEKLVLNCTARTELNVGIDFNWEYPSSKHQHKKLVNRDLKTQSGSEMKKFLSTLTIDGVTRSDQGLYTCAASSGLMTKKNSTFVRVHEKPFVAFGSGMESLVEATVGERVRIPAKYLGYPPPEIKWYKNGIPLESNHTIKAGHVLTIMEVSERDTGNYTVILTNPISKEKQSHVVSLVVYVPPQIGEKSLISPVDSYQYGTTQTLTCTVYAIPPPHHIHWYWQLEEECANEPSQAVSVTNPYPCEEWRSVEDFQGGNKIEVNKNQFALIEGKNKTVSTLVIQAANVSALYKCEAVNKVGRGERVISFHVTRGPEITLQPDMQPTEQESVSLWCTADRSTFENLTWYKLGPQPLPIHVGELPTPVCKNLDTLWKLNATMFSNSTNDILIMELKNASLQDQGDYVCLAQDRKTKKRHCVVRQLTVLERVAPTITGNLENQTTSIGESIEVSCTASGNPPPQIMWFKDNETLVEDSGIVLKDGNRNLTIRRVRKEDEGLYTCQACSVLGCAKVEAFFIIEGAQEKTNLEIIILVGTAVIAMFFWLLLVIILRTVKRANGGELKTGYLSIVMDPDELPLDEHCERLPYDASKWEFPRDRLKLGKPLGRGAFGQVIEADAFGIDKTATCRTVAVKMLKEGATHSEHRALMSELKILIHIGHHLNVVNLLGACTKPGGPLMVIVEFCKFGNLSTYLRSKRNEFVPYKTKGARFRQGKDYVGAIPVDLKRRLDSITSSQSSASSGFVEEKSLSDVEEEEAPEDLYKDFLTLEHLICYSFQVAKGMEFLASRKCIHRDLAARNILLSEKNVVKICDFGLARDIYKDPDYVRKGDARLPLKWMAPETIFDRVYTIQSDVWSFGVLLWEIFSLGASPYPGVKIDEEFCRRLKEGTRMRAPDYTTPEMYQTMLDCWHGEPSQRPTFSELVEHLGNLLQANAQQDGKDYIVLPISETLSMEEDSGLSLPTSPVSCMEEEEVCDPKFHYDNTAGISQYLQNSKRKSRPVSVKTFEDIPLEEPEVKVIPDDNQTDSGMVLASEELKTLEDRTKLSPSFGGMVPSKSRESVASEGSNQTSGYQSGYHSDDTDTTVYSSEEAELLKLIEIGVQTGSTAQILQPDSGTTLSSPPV
Method: as §12, §13, §14, §15

[6] = molecular target: T3, DDR2 (Homo sapiens, UniProt Q16832); test: as above; format: biochemical; conditions: 33P-ATP at Km concentration
T3 construct: purchased Reaction Biology Corp
T3 sequence (Q16832 22-855): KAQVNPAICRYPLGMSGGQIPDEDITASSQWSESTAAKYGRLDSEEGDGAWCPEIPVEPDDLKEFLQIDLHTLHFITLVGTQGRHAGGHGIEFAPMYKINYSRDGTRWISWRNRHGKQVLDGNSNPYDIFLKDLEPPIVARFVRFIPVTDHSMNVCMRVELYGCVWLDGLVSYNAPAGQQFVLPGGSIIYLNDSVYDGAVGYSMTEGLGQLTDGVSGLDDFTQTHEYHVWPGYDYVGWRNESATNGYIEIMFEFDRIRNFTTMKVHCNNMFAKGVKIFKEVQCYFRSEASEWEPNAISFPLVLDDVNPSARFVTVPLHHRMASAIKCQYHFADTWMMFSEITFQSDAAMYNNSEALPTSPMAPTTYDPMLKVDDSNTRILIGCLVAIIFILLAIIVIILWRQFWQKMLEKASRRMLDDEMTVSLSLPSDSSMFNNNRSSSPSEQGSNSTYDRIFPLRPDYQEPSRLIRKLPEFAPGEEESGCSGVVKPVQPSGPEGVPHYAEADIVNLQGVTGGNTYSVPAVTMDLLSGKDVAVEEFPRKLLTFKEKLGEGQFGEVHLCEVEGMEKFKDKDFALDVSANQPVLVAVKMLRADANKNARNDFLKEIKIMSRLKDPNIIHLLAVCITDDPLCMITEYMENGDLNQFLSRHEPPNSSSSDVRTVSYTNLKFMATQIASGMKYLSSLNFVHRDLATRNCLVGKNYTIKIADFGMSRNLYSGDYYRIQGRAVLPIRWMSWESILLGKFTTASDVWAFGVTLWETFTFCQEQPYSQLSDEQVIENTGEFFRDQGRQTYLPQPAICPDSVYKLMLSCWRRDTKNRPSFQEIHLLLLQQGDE
Method: as §12, §13, §14, §15

[7] = molecular target: T4, VEGFR3 (Homo sapiens, UniProt P35916); test: as above; format: biochemical; conditions: 33P-ATP at Km concentration
T4 construct: purchased Reaction Biology Corp
T4 sequence (P35916 25-1363): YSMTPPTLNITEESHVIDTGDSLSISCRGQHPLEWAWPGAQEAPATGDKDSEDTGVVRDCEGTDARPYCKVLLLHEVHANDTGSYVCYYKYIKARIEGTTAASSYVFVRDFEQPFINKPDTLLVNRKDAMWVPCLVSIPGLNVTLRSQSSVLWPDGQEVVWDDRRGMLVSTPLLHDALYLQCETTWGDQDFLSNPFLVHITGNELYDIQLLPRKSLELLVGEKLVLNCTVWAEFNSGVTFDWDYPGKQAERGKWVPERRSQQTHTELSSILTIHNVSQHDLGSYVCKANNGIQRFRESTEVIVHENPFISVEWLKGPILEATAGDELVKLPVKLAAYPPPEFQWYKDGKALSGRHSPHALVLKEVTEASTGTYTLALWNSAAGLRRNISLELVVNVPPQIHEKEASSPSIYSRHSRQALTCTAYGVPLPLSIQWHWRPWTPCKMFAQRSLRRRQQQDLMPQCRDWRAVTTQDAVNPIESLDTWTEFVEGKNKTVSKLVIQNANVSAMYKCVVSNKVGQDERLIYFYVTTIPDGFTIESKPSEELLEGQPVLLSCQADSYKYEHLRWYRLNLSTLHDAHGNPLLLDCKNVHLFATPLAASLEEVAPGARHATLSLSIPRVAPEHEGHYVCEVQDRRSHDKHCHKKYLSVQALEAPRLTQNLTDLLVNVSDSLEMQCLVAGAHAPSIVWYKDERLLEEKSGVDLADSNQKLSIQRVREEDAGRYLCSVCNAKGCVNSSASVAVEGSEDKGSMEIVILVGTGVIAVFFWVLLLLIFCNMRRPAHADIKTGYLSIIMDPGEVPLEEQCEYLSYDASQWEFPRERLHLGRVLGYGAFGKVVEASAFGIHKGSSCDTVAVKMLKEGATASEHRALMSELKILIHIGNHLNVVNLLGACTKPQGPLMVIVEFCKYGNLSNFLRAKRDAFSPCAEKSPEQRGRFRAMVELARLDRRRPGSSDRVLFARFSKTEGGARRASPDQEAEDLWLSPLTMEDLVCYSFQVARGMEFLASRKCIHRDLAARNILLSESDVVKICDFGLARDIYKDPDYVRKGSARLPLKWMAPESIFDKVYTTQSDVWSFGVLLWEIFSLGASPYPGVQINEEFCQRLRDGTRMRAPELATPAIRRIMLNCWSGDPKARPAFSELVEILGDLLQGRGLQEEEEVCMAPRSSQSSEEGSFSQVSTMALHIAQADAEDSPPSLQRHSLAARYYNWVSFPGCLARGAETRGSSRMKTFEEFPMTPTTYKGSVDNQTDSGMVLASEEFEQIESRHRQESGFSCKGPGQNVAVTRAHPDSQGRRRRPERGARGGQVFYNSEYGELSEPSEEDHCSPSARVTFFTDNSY
Method: as §12, §13, §14, §15

[8] = Metabolic stability of liver microsomes in vitro; format: in vitro ADME, beagle; conditions: Dog liver microsomes 0.5 mg/mL, compound 1 μM; for CLint scaled at 1 μM: beagle
Method: as §1, §2, §3, §4, §5, §6, §7, §8, §9, §10, §11

[9] = Pharmacokinetic evaluation in rats after oral administration; format: in vivo; conditions: Sprague-Dawley, plasma, 5 mg/kg, SD rat (male), 5 mpk
Method: Testing the pharmacokinetic properties of the compounds of the present disclosure in rats.
The pharmacokinetic characteristics of the compounds in rodents after oral administration were tested by standard protocols. In the experiment, the candidate compounds were formulated into a clarified solution and given to rats for oral administration. The vehicle was 10% NMP/40% PEG400/[…]. Whole blood samples were collected within 24 hours (0.0833, 0.25, 0.5, 1, 2, 4, 6, 8, 24 h), and all blood samples were added to the plastic centrifuge tubes pre-labeled with 0.5 M K2-EDTA anticoagulant.

[10] = Human liver microsomes 0.5 mg/mL
[11] = Mouse liver microsomes 0.5 mg/mL

Compound	60 min remaining [1] [%]	CLint scaled at 1 μM [1] [mL/min/kg]	CLint scaled at 1 μM [2] [mL/min/kg]	60 min remaining [2] [%]	CLint scaled at 1 μM [3, 10] [mL/min/kg]	60 min remaining [3, 10] [%]	CLint scaled at 1 μM [3, 11] [mL/min/kg]	60 min remaining [3, 11] [%]	IC50 [4] [nM]	IC50 [5] [nM]	IC50 [6] [nM]	IC50 [7] [nM]	60 min remaining [8] [%]	CLint scaled at 1 μM [8] [mL/min/kg]	AUC(0-t) [9] [µM·h]	Cmax [9] [nM]	Tmax [9] [h]
[2H]C([2H])([2H])OC([2H])([2H])CNCc1ccc(-c2cc3nccc(Oc4ccc(NC(=O)C5(C(=O)Nc6ccc(F)cc6)CC5)cc4F)c3s2)nc1 [Hydrochloride of 002]	26.2	78.1	19.7	59.7	< 8.6	96.4	301	11.3	7.16	2.75	1.14	2.13	5.4	139			
COCCNCc1ccc(-c2cc3nccc(Oc4ccc(NC(=O)C5(C(=O)Nc6ccc(F)cc6)CC5)cc4F)c3s2)nc1 [Sitravatinib, reference compound]	4.2	192	42.8	38.5	10.6	71.5	460	3.30					2.6	172	4.79	801	3
[2H]C([2H])([2H])OCCNCc1ccc(-c2cc3nccc(Oc4ccc(NC(=O)C5(C(=O)Nc6ccc(F)cc6)CC5)cc4F)c3s2)nc1 [Trifluoroacetate of 001]	28.6	71.3	22.5	55.9	< 8.6	87.1	321	9.5	10.5	2.16	0.79	2.82	4.9	144	6.65	930	1.25
